{"source": "patent US10973863B2", "about": "“Method for regulating, preventing and/or treating pulmonary injury” (SINPHAR PHARMACEUTICAL CO., LTD., priority 2017, dated 2021)", "key": {"[1]": {"system": "MMP-9", "assay": "Gelatin zymography: LPS-activated active expression of MMP-9 in NR8383 cells", "assay_type": "cell-based, rat", "details": "Table 4, LPS 1 μg/mL, 24 hours", "source_text": "As indicated above, when an inflammatory response occurs in animal's pulmonary tissue, the active inflammatory cells will secret MMPs that will destroy the pulmonary tissue structure, cause more serious pulmonary injury, and lead to the decrement in or the loss of pulmonary functions. […]\nThereafter, the medium of each group was collected and respectively subjected to the following procedures. A 10% polyacrylamide gel containing 0.2% gelatin was used to carry out the sodium dodecyl sulfate polyacrylamide gel electrophoresis (SDS-PAGE). After the electrophoresis was completed, the gel was sequentially soaked in 2.5% Triton X-100 solution for 90 minutes to remove SDS, soaked in distillation-distillation water (ddH2O) for 30 minutes, and placed in a reaction solution (50 mM Tris-HCl buffer containing 10 mM CaCl2 and 0.02% NaN3) at a temperature of 37° C. for 18 hours. After the foregoing reaction was completed, the gel was stained by a Coomassie blue staining solution, and the image of stained gel was taken and subjected to an image analysis. The image intensity (the image intensity was calculated based on the size of area and the shade of color) of highlight band (i.e., the gelatin in this area was degraded by MMPs, wherein the area locating around 95 kD molecular weight) on the gel of each group can reflect the active expression of MMP-9 of rat alveolar macrophage NR8383 cells under different conditions (the relative active expression of MMP-9 was calculated by serving the results of the blank group as 0% and serving that of the control group as 100%).\nRat alveolar macrophage NR8383 cells were divided into twenty-eight groups and separately cultivated with the following media for 24 hours: • (1) Blank group: a macrophage growth medium; • (2) Control group: a macrophage growth medium containing 1 μg/mL LPS; • (3) Positive control group: a macrophage growth medium containing 1 μg/mL LPS and 5 μM Prednisolone (a type of corticosteroid; abbreviated as “Pred”; purchased from Sigma-Aldrich); • (4) Extract C (including five sub-groups): a macrophage growth medium containing 1 μg/mL LPS and the extract C provided by [preparation example A-3-2], wherein the extract C is present in the five sub-groups at a concentration of […] respectively; • (5) Extract D (including five sub-groups): a macrophage growth medium containing 1 μg/mL UPS and the extract D provided by [preparation example A-4-2], wherein the extract D is present in the five sub-groups at a concentration of 0.78, 1.56, 3.13, 6.25 and 12.5 respectively; • (6) Extract E (including five sub-groups): a macrophage growth medium containing 1 μg/mL LPS and the extract E provided from [preparation example A-4-3], wherein the extract E is present in the five sub-groups at a concentration of 0.78, 1.56, 3.13, […], and 12.5 respectively; • (7) DATA group (including five sub-groups): a macrophage growth medium containing 1 μg/mL LPS and the dehydrotrametenolic acid (DTTA) provided by [preparation example C-1], wherein the dehydrotrametenolic acid (DTTA) is present in the five sub-groups at a concentration of 0.39, 0.78, 1.56, 3.13 and 6.25 μg/mL respectively; and • (8) PAA group (including live sub-groups): a macrophage growth medium containing 1 μg/mL LPS and the poricoic acid A (PAA) provided from [preparation example C-1], wherein the poricoic acid A (PAA) is present in the five sub-groups at a concentration of 6.25, 12.5, 25, 50 and 100 respectively.\nThereafter, the medium of each group was collected and analyzed by the analyzing procedures same as that of (1-1)."}, "[2]": {"system": "pro-form MMP-9", "assay": "Western blot: pro-form MMP-9 expression in LPS-treated NR8383 cells", "assay_type": "cell-based, rat", "details": "0.01 μg/mL LPS; 12.5 μg/mL; 24 hours; vs control group", "experimental": "(§1) Rat alveolar macrophage NR8383 cells were divided into six groups and separately cultivated with the following media for 24 hours: • (1) Control group: a macrophage growth medium containing 0.01 μg/mL LPS; • (2) Positive control group: a macrophage growth medium containing 0.01 μg/mL LPS and 1 μM Dex; and • (3) Extract A group (including four sub-groups): a macrophage growth medium containing 0.01 μg/mL LPS and the extract A provided by [preparation example A-2-2], wherein the extract A is present in the four sub-groups at a concentration of 6.25, 12.5, 25 and 50 μg/mL respectively.\n(§2) Thereafter, the proteins in the cells of each group were extracted and then subjected to a Western blot to measure the expression level of pro-form MMP-9 (i.e., the zymogen form of MMP-9), active-form MMP-9 and MMP-12. The relative expression level of pro-form MMP-9, active-form MMP-9 and MMP-12 of each group was calculated by using the results of the control group as a basis (i.e., the expression level of control group was served as 1-fold).\n(§3) Rat alveolar macrophage NR8383 cells were divided into ten groups and separately cultivated with the following media for 24 hours:\n(§4) (1) Control group: a macrophage growth medium containing 0.01 μg/mL LPS;\n(§5) (2) Positive control group: a macrophage growth medium containing 0.01 μg/mL LPS and 1 μM Dex; […]"}, "[3]": {"system": "active-form MMP-9", "assay": "Western blot: active-form MMP-9 expression in LPS-treated NR8383 cells", "assay_type": "cell-based, rat", "details": "0.01 μg/mL LPS; 12.5 μg/mL; 24 hours; vs control group", "experimental": "as §1, §2, §3, §4, §5"}, "[4]": {"system": "MMP-12", "assay": "Western blot: MMP-12 expression in LPS-treated NR8383 cells", "assay_type": "cell-based, rat", "details": "0.01 μg/mL LPS; 12.5 μg/mL; 24 hours; vs control group", "experimental": "as §1, §2, §3, §4, §5"}, "[5]": {"system": "Mucin 5AC", "assay": "Western blot: LPS-induced expression of Mucin 5AC in NCI-H929 cells", "assay_type": "cell-based, human", "details": "1 μg/mL LPS, 24 hours, vs control group", "source_text": "As indicated above, the hypersecretion of mucus in airway can be observed in the patients suffering from pulmonary injury-related diseases, such as chronic obstructive pulmonary disease and emphysema, and the mucus hypersecretion is associated with the overexpression of mucins in pulmonary tissue. Symptoms like the increased sputum production will occur in the patients suffering from the mucin hypersecretion in airway, and the increased sputum will accumulate in the airway and lung, thereby making the airway narrow and increasing respiratory resistance. To investigate the effects of active ingredients of FU-LING extract in regulating, preventing, and/or treating the pulmonary injury-related diseases, such as chronic obstructive pulmonary disease and emphysema, a Western blot was conducted to measure the inhibitory rate of active ingredients of FU-LING extract (tumulosic acid and poricoic acid A) on the LPS-induced expression of Mucin 5AC in human lung epithelial NCI-H929 cells.\nHuman lung epithelial NCI-H929 cells were divided into ten groups and separately cultivated with the following media for 24 hours:\n(1) Control group: an epithelial cell growth medium containing […];\n(2) Positive control group: an epithelial cell growth medium containing 1 μg/mL LPS and 10 μM Dex;\n(3) TA group (including four sub-groups): an epithelial cell growth medium containing […] the tumulosic acid (TA) provided by [preparation example C-1], wherein the tumulosic acid (TA) is present in the four sub-groups at a concentration of 1.56, 3.13, 6.25 and 12.5 μg/mL respectively; and\n(4) PAA group (including four sub-groups): an epithelial cell growth medium containing 1 μg/mL LPS the poricoic acid A (PAA) provided by [preparation example C-1], wherein the poricoic acid A (PAA) is present in the four sub-groups at a concentration of 6.25, 12.5, 25 and 50 μg/mL respectively.\nas §2, with “Mucin 5AC.” for “pro-form MMP-9 (i.e., the zymogen form of MMP-9), active-form MMP-9 and MMP-12.”, “Mucin 5AC” for “pro-form MMP-9, active-form MMP-9 and MMP-12”"}}}
{"smiles": "C=C(CC[C@@H](C(=O)O)[C@H]1[C@H](O)C[C@@]2(C)C3=C(CC[C@]12C)[C@@]1(C)CC[C@H](O)C(C)(C)[C@@H]1CC3)C(C)C", "note": "[TA, tumulosic acid]", "values": [{"measurement": "Relative active expression of MMP-9 (%)", "setting": "[1]; 3.13 μg/mL", "value": 60.6, "unit": "%"}, {"measurement": "Relative active expression of MMP-9 (%)", "setting": "[1]; 6.25 μg/mL", "value": 28.4, "unit": "%"}, {"measurement": "Relative active expression of MMP-9 (%)", "setting": "[1]; 12.5 μg/mL", "value": 0, "unit": "%"}, {"measurement": "Inhibitory rate on the expression level of pro-form MMP-9", "setting": "[2]", "value": 53, "unit": "%"}, {"measurement": "Inhibitory rate on the expression level of active-form MMP-9", "setting": "[3]", "value": 100, "unit": "%"}, {"measurement": "Inhibitory rate on the expression level of MMP-12", "setting": "[4]", "value": 45, "unit": "%"}, {"measurement": "Inhibitory rate on LPS-induced expression of Mucin 5AC", "setting": "[5]; 1.56 μg/mL (low-dose)", "value": "up to 75%"}, {"measurement": "Inhibitory rate on LPS-induced expression of Mucin 5AC", "setting": "[5]; 12.5 μg/mL (high-dose)", "value": "≤ 81", "unit": "%"}]}
